The values that follow come from ChEMBL document CHEMBL4392848, “Proline-based hydroxamates targeting the zinc-dependent deacetylase LpxC: Synthesis, antibacterial properties, and docking studies” (Bioorg Med Chem, 2019).

Each structure is given as a SMILES string. ≈ marks a conversion by molar mass, not a printed value. Calls of active or inactive are those of the source. No cut-off for these calls is given here. Bounds are passed on as bounds.

The IC50 is the concentration that inhibits the measured activity by half. Read a low IC50 as greater potency. The Ki is the equilibrium dissociation constant of an inhibitor or competing ligand from its target. Lower therefore signals a stronger hold on the target. Usually MIC stands for the lowest concentration found to suppress growth. Lower therefore signals a more susceptible organism.

The nature of data set [1]: Inhibition of Escherichia coli LpxC C63A mutant using UDP-3-O-[(R)-3-hydroxymyristoyl]-N-acetylglucosamine as substrate measured after 30 mins by fluorescence based microplate assay.
Data set [2] concerns Escherichia coli. Kind of data set: Inhibition of Escherichia coli LpxC C63A mutant at 200 uM using UDP-3-O-[(R)-3-hydroxymyristoyl]-N-acetylglucosamine as substrate measured after 30 mins by fluorescence based microplate assay.
The subject of data set [3] is Escherichia coli. Briefly: Antibacterial activity against Escherichia coli D22 measured after 20 hrs by microdilution method. In kind it is functional. Conditions: D22, 20 h. In general terms: Dilution methods test growth across graded concentrations, often in twofold steps.
For data set [4], the system named is Escherichia coli. Briefly: Antibacterial activity against Escherichia coli D22 assessed as diameter of inhibition zone measured after overnight incubation by agar disc diffusion method. It is filed as functional. A general note: Agar diffusion results depend on both activity and mobility in agar.
The test system of a further data set is Pseudomonas aeruginosa. Kind of data set: Antibacterial activity against Pseudomonas aeruginosa assessed as diameter of inhibition zone measured after 24 hrs by agar disc diffusion method. It is filed as functional.
A further data set concerns Klebsiella oxytoca. Kind of data set: Antibacterial activity against Klebsiella oxytoca assessed as diameter of inhibition zone measured after 24 hrs by agar disc diffusion method. In kind it is functional.
The next data set concerns Proteus mirabilis. Briefly: Antibacterial activity against Proteus mirabilis assessed as diameter of inhibition zone measured after 24 hrs by agar disc diffusion method. It is filed as functional.
The test system of the next data set is Proteus vulgaris. Briefly: Antibacterial activity against Proteus vulgaris assessed as diameter of inhibition zone measured after 24 hrs by agar disc diffusion method. It is filed as functional.
For the next data set, the system named is Enterobacter cloacae. Kind of data set: Antibacterial activity against Enterobacter cloacae assessed as diameter of inhibition zone measured after 24 hrs by agar disc diffusion method. It is filed as functional.
The subject of data set [5] is Escherichia coli. Kind of data set: Antibacterial activity against Escherichia coli BL21(DE3) assessed as diameter of inhibition zone measured after overnight incubation by agar disc diffusion method. It is filed as functional.
A further data set concerns Klebsiella pneumoniae. Kind of data set: Antibacterial activity against Klebsiella pneumoniae assessed as diameter of inhibition zone measured after 24 hrs by agar disc diffusion method. In kind it is functional.
In data set [6] the target is 72 kDa type IV collagenase (Homo sapiens, UniProt P08253). Kind of data set: Inhibition of human MMP2 using (7-methoxycoumarin-4-yl)acetyl-Pro-Leu-Gly-Leu-(3-(2,4-dinitrophenyl)-L-2,3-diamino-propionyl)Ala-Arg-NH2 as substrate preincubated for 30 mins followed by substrate addition and measured by fluorescence assay.
The target in another data set is Collagenase 3 (Homo sapiens, UniProt P45452). Briefly: Inhibition of human MMP13 using (7-methoxycoumarin-4-yl)acetyl-Pro-Leu-Gly-Leu-(3-(2,4-dinitrophenyl)-L-2,3-diamino-propionyl)Ala-Arg-NH2 as substrate preincubated for 30 mins followed by substrate addition and measured by fluorescence assay.
The target in data set [7] is Matrix metalloproteinase-9 (Homo sapiens, UniProt P14780). Briefly: Inhibition of human MMP9 using (7-methoxycoumarin-4-yl)acetyl-Pro-Leu-Gly-Leu-(3-(2,4-dinitrophenyl)-L-2,3-diamino-propionyl)Ala-Arg-NH2 as substrate preincubated for 30 mins followed by substrate addition and measured by fluorescence assay.
For another data set, the system named is Citrobacter freundii. Kind of data set: Antibacterial activity against Citrobacter freundii assessed as diameter of inhibition zone measured after 24 hrs by agar disc diffusion method. In kind it is functional.
Data set [8] concerns Escherichia coli. Briefly: Antibacterial activity against Escherichia coli BL21(DE3) measured after 20 hrs by microdilution method. It is filed as functional.
The next data set relates to Klebsiella aerogenes. Briefly: Antibacterial activity against Enterobacter aerogenes assessed as diameter of inhibition zone measured after 24 hrs by agar disc diffusion method. In kind it is functional.
Another data set deals with Neutrophil collagenase (Homo sapiens, UniProt P22894). Briefly: Inhibition of human MMP8 using (7-methoxycoumarin-4-yl)acetyl-Pro-Leu-Gly-Leu-(3-(2,4-dinitrophenyl)-L-2,3-diamino-propionyl)Ala-Arg-NH2 as substrate preincubated for 30 mins followed by substrate addition and measured by fluorescence assay.
Data set [9] is described as follows: Selectivity ratio of IC50 for human MMP8 to IC50 for human MMP13. In kind it is ADME.
For a further data set, the target named is MMP-2/MMP-9 (Homo sapiens, UniProt P08253+P14780). Kind of data set: Selectivity ratio of IC50 for human MMP9 to IC50 for human MMP2. In kind it is ADME.
Data set [10] is described as follows: Selectivity ratio of IC50 for human MMP8 to IC50 for human MMP2. In kind it is ADME.
The nature of data set [11]: Selectivity ratio of IC50 for human MMP9 to IC50 for human MMP13. It is filed as ADME.

Chain of 72 kDa type IV collagenase (P08253 whole entry): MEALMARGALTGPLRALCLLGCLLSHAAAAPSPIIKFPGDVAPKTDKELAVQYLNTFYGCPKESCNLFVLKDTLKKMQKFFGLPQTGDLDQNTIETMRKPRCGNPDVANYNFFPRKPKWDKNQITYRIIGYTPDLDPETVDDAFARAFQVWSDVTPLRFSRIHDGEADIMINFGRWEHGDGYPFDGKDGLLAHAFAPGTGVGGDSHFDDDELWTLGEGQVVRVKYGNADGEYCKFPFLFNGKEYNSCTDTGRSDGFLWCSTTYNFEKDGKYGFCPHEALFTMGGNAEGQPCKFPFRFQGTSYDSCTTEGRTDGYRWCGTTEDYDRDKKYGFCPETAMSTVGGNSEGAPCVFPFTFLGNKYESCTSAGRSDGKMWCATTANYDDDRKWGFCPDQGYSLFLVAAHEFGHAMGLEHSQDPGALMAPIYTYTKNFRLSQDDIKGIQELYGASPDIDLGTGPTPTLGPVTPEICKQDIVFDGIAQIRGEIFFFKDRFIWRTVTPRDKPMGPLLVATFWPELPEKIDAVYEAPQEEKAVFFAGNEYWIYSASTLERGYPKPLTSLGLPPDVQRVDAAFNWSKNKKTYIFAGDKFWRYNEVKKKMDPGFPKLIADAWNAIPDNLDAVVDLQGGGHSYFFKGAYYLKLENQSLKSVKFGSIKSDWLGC
Chain of Matrix metalloproteinase-9 (P14780 whole entry, the tested form may be a part): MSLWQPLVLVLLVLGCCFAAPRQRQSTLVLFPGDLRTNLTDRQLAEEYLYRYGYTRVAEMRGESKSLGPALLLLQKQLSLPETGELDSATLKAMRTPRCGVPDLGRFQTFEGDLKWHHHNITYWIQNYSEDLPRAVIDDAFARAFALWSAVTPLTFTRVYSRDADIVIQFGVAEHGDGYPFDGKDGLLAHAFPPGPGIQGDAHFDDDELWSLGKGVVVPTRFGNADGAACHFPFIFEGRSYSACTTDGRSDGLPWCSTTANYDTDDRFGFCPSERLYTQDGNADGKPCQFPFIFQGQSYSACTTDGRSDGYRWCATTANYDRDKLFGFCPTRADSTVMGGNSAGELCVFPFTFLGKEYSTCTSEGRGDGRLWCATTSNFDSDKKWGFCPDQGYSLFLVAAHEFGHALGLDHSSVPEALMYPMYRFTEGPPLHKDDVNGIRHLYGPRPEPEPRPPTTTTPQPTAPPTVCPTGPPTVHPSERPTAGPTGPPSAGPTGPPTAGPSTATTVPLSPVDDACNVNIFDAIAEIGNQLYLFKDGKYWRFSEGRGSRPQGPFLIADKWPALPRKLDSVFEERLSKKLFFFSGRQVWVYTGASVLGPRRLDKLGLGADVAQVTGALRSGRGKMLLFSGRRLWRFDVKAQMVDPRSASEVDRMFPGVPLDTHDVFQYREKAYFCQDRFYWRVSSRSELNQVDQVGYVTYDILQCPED
Chain of Neutrophil collagenase (P22894 whole entry): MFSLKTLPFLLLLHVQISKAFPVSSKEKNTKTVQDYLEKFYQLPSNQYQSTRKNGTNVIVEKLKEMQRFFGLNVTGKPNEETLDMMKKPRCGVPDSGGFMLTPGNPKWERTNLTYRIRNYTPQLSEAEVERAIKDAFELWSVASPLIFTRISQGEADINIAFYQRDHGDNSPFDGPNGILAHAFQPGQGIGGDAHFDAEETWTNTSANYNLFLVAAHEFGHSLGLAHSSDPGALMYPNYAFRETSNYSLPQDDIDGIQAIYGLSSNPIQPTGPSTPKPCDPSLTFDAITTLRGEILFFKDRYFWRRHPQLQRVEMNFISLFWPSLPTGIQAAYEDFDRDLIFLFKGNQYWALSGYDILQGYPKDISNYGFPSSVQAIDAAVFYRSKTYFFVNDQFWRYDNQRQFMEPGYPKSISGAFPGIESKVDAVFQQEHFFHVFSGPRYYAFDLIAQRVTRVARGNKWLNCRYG

As for `O=C(NO)[C@H]1[C@H](O)[C@H](O)CN1C(=O)c1ccc(C#Cc2ccc(CN3CCSCC3)cc2)cc1`, the 50% inhibitory concentration (IC50) in [1] is over 200 µM; in data set [6], over 10 µM; at Collagenase 3, 5 µM; in [7], over 10 µM. In addition, the inhibition constant Ki in data set [1] was over 27.6 µM. Also, the inhibition result with Escherichia coli [2] was “inactive”. The MIC in the data set on Escherichia coli [3] is 128 µM (≈ 61.6 µg/mL); in the data set on Escherichia coli [8], over 256 µM. In addition, the “diameter of the inhibition zone (DIZ)” value was 8.3 mm in the data set with Escherichia coli [4]; under 6 mm in the data set with Pseudomonas aeruginosa; 7 mm in the data set with Klebsiella oxytoca; under 6 mm with Proteus mirabilis; under 6 mm with Proteus vulgaris; under 6 mm in the data set with Enterobacter cloacae. In addition, the “diameter of the inhibition zone (DIZ)” value with Escherichia coli [5], with Klebsiella pneumoniae, with Citrobacter freundii and in the data set with Klebsiella aerogenes was under 6 mm throughout.

For `O=C(NO)[C@H]1[C@H](O)[C@H](O)CN1C(=O)c1ccc(C#Cc2ccc(CN3CCOCC3)cc2)cc1`, the 50% inhibitory concentration (IC50) in data set [1] was over 200 µM; against Neutrophil collagenase it was over 10 µM; in data set [6], over 10 µM; at Collagenase 3 it was 4.32 µM; in data set [7] it was over 10 µM. In data set [1], this compound yielded a Ki of over 27.6 µM. The inhibition result with Escherichia coli [2] was “inactive”. Also, the minimal inhibitory concentration (MIC) with Escherichia coli [3] and against Escherichia coli [8] was over 256 µM each time. For the same compound, the “diameter of the inhibition zone (DIZ)” value was under 6 mm in the data set with Escherichia coli [4]; under 6 mm in the data set on Pseudomonas aeruginosa; 8 mm in the data set on Klebsiella oxytoca; under 6 mm in the data set with Proteus mirabilis; under 6 mm in the data set on Proteus vulgaris; under 6 mm in the data set with Enterobacter cloacae. Moreover, the “diameter of the inhibition zone (DIZ)” value with Escherichia coli [5], in the data set with Klebsiella pneumoniae, in the data set on Citrobacter freundii and with Klebsiella aerogenes was under 6 mm each time.

As to `O=C(NO)[C@@H]1[C@H](O)[C@H](O)CN1C(=O)c1ccc(C#Cc2ccc(CN3CCOCC3)cc2)cc1`, the IC50 turned out to be 2.5 µM in [1]; 0.172 µM on Neutrophil collagenase; 0.032 µM in data set [6]; 0.039 µM at Collagenase 3; 1.8 µM in data set [7]. Moreover, in data set [1], the Ki came out at 0.34 µM. The Ratio IC50 in data set [9] is 4 to 5; at MMP-2/MMP-9 it was 51; in [10] it was 4 to 5; in data set [11], 51. For the same compound, the MIC against Escherichia coli [3] amounted to 16 µM (≈ 7.45 µg/mL); against Escherichia coli [8] it was 128 µM (≈ 59.6 µg/mL). Also, the “diameter of the inhibition zone (DIZ)” value in the data set with Escherichia coli [4] was 18 mm; in the data set on Escherichia coli [5], under 6 mm.

Turning to `O=C(NO)[C@@H]1C[C@@H](O)CN1Cc1ccc(C#Cc2ccc(CN3CCOCC3)cc2)cc1`, the IC50 in [1] was 62.1 µM; against Neutrophil collagenase it was over 10 µM; in data set [6], over 10 µM; against Collagenase 3 it was over 10 µM; in data set [7], over 10 µM. Besides, in [1], the affinity corresponds to a Ki of 8.6 µM. Besides, the MIC against Escherichia coli [3] is 8 µM (≈ 3.48 µg/mL); in the data set with Escherichia coli [8] it was over 256 µM. In addition, the “diameter of the inhibition zone (DIZ)” value in the data set with Escherichia coli [4] is 21 mm; with Pseudomonas aeruginosa it was under 6 mm; in the data set on Klebsiella oxytoca it was under 6 mm; in the data set with Proteus mirabilis it was under 6 mm; in the data set on Proteus vulgaris it was under 6 mm; in the data set with Enterobacter cloacae, under 6 mm. Further, the “diameter of the inhibition zone (DIZ)” value was 12.3 mm in the data set on Escherichia coli [5], 7 mm in the data set with Klebsiella pneumoniae, under 6 mm in the data set on Citrobacter freundii and under 6 mm in the data set with Klebsiella aerogenes.

On to `O=C(NO)[C@@H]1CCCN1C(=O)c1ccc(C#Cc2ccc(CN3CCOCC3)cc2)cc1`, for which the IC50 amounted to 45.6 µM in data set [1]; 2 µM at Neutrophil collagenase; 0.57 µM in data set [6]; 0.28 µM against Collagenase 3; 4 µM in [7]. In addition, the affinity in data set [1] corresponds to a Ki of 6.3 µM. Also, the MIC against Escherichia coli [3] turned out to be 16 µM (≈ 6.94 µg/mL); with Escherichia coli [8], 64 µM (≈ 27.7 µg/mL). In addition, the “diameter of the inhibition zone (DIZ)” value in the data set with Escherichia coli [4] was 20 mm; in the data set with Pseudomonas aeruginosa it was under 6 mm; in the data set on Klebsiella oxytoca it was 9 mm; in the data set on Proteus mirabilis it was 12 mm; with Proteus vulgaris, 9 mm; in the data set with Enterobacter cloacae, 13 mm. The “diameter of the inhibition zone (DIZ)” value is 13.2 mm in the data set with Escherichia coli [5], 15 mm in the data set on Klebsiella pneumoniae, 12 mm in the data set with Citrobacter freundii and 15 mm in the data set on Klebsiella aerogenes.
